{
  "source": "patent US20260306644A1",
  "about": "“ANTIBODY RECRUITING MOLECULES FOR THE TREATMENT OF CORONAVIRUS DISEASE-19” (priority 2023, published 2026)",
  "key": {"[1]": {"system": "live SARS-CoV-2 Virus (wildtype)", "assay": "Neutralization of live SARS-CoV-2 virus, wildtype (Vero E6 cells, nucleoprotein ELISA)", "assay_type": "cell-based"}, "[2]": {"system": "Spike RBD coated magnetic beads / RAW 264.7 macrophages", "assay": "Antibody-dependent cellular phagocytosis (ADCP), RAW 264.7 macrophages and Spike RBD coated magnetic beads, flow cytometry", "assay_type": "cell-based", "details": "37° C., 2 hours, read-out: SARS-COV-2 ADCP EC50", "experimental": "The ability of the compounds to mediate antibody-dependent cellular phagocytosis (ADCP) was assessed using RAW 264.7 macrophages and Spike RBD coated magnetic beads (https://www.acrobiosystems.com/P3194-SARS-CoV-2-Spike-RBD-coupled-Magnetic-Beads.html). Spike RBD coated magnetic beads (3 ul per well) were added to each well of a round bottom 96-well plates. RAW264.7 cells (50,000 cells per well) were added to the beads. Next, the compounds were administered to predetermined final concentrations. The cell-bead mixtures were incubated at 37° C. for 2 hours. The mixtures were then analyzed by flow cytometry."}, "[3]": {"molecular_target": "T1, SARS-CoV-2 Spike Glycoprotein RBD protein (Severe acute respiratory syndrome coronavirus 2, UniProt P0DTC2)", "T1 construct": "SARS-CoV-2 (COVID-19) S Protein RBD, His Tag; purchased Acro Biosystems SPD-C52H3", "assay": "Binding of biotinylated ligands to SARS-CoV-2 Spike Glycoprotein RBD protein by ELISA", "details": "ELISA; biotinylated ligands; Spike RBD; read-out: ELISA SARS-CoV-2 Spike RBD Protein Binding EC50", "experimental": "Materials. The binding affinity of biotinylated ligands to SARS-CoV-2 Spike Glycoprotein RBD protein was determined by ELISA. The binding assay was performed using the following steps: (1) assay plates (PE B&W Isoplate 96-well Flat Bottom, High Bindi-g - Perkin Elmer 6005580) were coated with 100 ul Anti-6× His tag antibody (Anti-6× His tag Antibody; Abcam ab15149, Mouse Monoclonal; Cambridge, UK) at 5 μg/ml in PBS, incubate 1 hour at 37° C. without shaking. The plates were washed (each wash step of this assay includes four 1-minute washes with 200 ul phosphate-buffered saline-0.05% (w/v) Tween® 20 detergent (PBST)). (2) Plates were blocked with 200 ul PBST-5% BSA (PBSTB; American Bio AB01088-00100; Canton, MA), for an hour at room temperature on a plate shaker (400 rpm). The plates were washed. […] The plates were washed. (4) Ligands were added, 100 ul at a concentration range of 0.1 mM to 100 nM in PBSTB, and incubated for 1 hour at room temperature on a plate shaker (200 RPM). The plates were washed. (5) NeutrAvidin™-HRP (Invitrogen 31030; Waltham, MA) is added, 100 ul at a dilution of 1:20,000 in PBSTB, and incubated for 1 hour at room temperature on a plate shaker (200 RPM). The plates were washed. (6) SuperSignal ELISA Pico Chemiluminescent Substrate (Thermo Scientific 37069; Waltham, MA) was added and incubated for 5 minutes at room temperature on a plate shaker (200 RPM)."}, "SARS-CoV-2 Spike protein": {"molecular_target": "SARS-CoV-2 Spike protein (Severe acute respiratory syndrome coronavirus 2, UniProt P0DTC2)", "assay": "Ternary binding of SARS-CoV-2 Spike protein (293T cells expressing Spike-GFP, IgG-AF647, flow cytometry)", "assay_type": "cell-based", "details": "293T cells expressing Spike-GFP; IgG-AF647 10 μg/ml; repeat values/batches listed separately; read-out: SARS-CoV-2 Ternary binding EC50"}, "[4]": {"molecular_target": "T2, SARS-CoV-2 Spike A (wild-type) (Severe acute respiratory syndrome coronavirus 2, UniProt P0DTC2)", "T2 construct": "purchased Meso Scale Diagnostics, LLC V-PLEX SARS-CoV-2 Panel 13 (ACE2) Kit / Panel 23 (ACE2) Kit", "assay": "MSD ACE2 competition assay (inhibition of Spike binding with ACE2, ECL), A (wild-type)", "details": "IC50 Wild Type, Wild Type Spike"}, "native human IgG1": {"molecular_target": "native human IgG1", "assay": "Ligand binding to native human IgG1 by Bio-Layer Interferometry (BLI)", "details": "read-out: Octet Native IgG1 Binding KD", "experimental": "The binding of exemplary compounds to native human IgG1 was measured by Bio-Layer Interferometry (BLI) using the ForteBio Octet® 96e platform (Fremont, CA). The binding assay was performed using the Protein L (ProL) Dip and Read Biosensors (ForteBio 18-5085) in a 96-well black flat bottom assay plate (Greiner Bio-One 655209; Monroe, NC) with the following steps: (1) 60 seconds of baseline; (2) 600 seconds of loading with 50 μg/ml of Native Human IgG1 (Abcam ab184886; Cambridge, UK); (3) 60 seconds of baseline; (4) 180 seconds of association with a dilution series of ligand in Assay Buffer (PBS (Gibco 10010; Grand Island, New York), 0.1% (w/v) BSA (American Bio AB01088-00100; Canton, MA), 0.05% (v/v) Tween 20 (Fisher BioReagents™ BP337-500; Pittsburgh, PA), pH 7.4), consisting of seven concentrations. The eighth tip in the column was run in Assay Buffer to serve as a reference sensor, the signal of which was subtracted from the sample sensors. (5) 180 seconds of dissociation in Assay Buffer.\nThe data was analyzed with the Octet® Data Analysis HT software. The processed data was globally fit to a 1:1 binding model for determination of the equilibrium dissociation constant (KD) and is shown in Table 7."}, "[5]": {"details": "live virus neutralization, isolate Seattle WA (IITRI), Vero E6"}},
  "note": "Several values for one entry are separate records, joined by “and”; a condition that tells them apart may be missing. Equal entries are not always repeated. Where two headings read alike, the source gives them in different places. Positions of bridges follow the written chain, without caps; N, C: chain ends. Non-standard residues stand in square brackets, D forms with d. Residues, ends and D or L forms follow the SMILES beside them. No end group written: not given here. *: point of attachment. X1 = O=C(CCCC[C@@H]1SC[C@@H]2NC(=O)N[C@@H]21)NCCOCCOCCOCCOCCN*; Biotin = O=C1N[C@H]2[C@H](CS[C@H]2CCCCC(=O)*)N1; PEG4 = NCCOCCOCCOCCOCCC(=O)O; hCys = N[C@@H](CCS)C(=O)O; Nle = CCCC[C@H](N)C(=O)O; Aib = CC(C)(N)C(=O)O",
  "data": [
    {"molecule": "CC[C@H](C)[C@H](NC(=O)[C@H](CC(C)C)NC(=O)[C@H](CC(=O)O)NC(=O)[C@H](CO)NC(=O)[C@@H](NC(=O)[C@H](CCCNC(=N)N)NC(=O)[C@H](CCSC)NC(=O)[C@H](CO)NC(=O)[C@H](C)NC(=O)[C@H](CCC(=O)O)NC(=O)[C@H](C)NC(=O)[C@H](Cc1c[nH]cn1)NC(=O)CNC(=O)[C@H](CC(C)C)NC(=O)[C@H](CCC(=O)O)NC(=O)[C@H](CC(=O)O)NC(=O)[C@H](CC(C)C)NC(=O)[C@H](CC(C)C)NC(=O)[C@H](CCCNC(=N)N)NC(=O)[C@H](CCSC)NC(=O)[C@@H](NC(=O)[C@H](CCC(=O)O)NC(=O)[C@H](Cc1ccc(O)cc1)NC(=O)[C@@H](NC(=O)[C@H](CCCCN)NC(=O)[C@H](CCC(N)=O)NC(=O)[C@H](CC(C)C)NC(=O)[C@@H](NC(=O)[C@H](Cc1c[nH]c2ccccc12)NC(=O)[C@H](CCC(=O)O)NC(=O)[C@H](CCCCN)NC(=O)[C@H](CC(=O)O)NC(=O)CCOCCOCCOCCOCCOCCOCCOCCOCCNC(=O)CCOCCOCCOCCOCCOCCOCCOCCOCCC(=O)N[C@@H](CC(=O)O)C(=O)N[C@H]1CSSC[C@@H](C(=O)N[C@H](C(N)=O)[C@@H](C)O)NC(=O)[C@H](Cc2c[nH]c3ccccc23)NC(=O)[C@H](C(C)C)NC(=O)[C@H](CC(C)C)NC(=O)[C@H](CCC(=O)O)NC(=O)CNC(=O)[C@H](CC(C)C)NC(=O)[C@H](Cc2c[nH]cn2)NC(=O)[C@H](Cc2c[nH]c3ccccc23)NC(=O)[C@H](C)NC1=O)[C@@H](C)CC)[C@@H](C)CC)[C@@H](C)CC)C(C)C)C(=O)N[C@@H](Cc1ccc(O)cc1)C(=O)N[C@@H](CCC(=O)O)C(=O)N[C@@H](Cc1ccccc1)C(=O)N[C@@H](CCSC)C(=O)N[C@@H](CCCCN)C(=O)N[C@@H](CCCCN)C(=O)NCC(=O)N[C@@H](CC(=O)O)C(=O)N[C@@H](CCC(=O)O)C(=O)N[C@@H](CCCNC(=N)N)C(=O)N[C@@H](CC(C)C)C(=O)N[C@@H](CC(C)C)C(=O)N[C@@H](CCC(=O)O)C(=O)N[C@@H](CCC(=O)O)C(=O)N[C@@H](C)C(=O)N[C@@H](CCC(=O)O)C(=O)N[C@@H](CCCNC(=N)N)C(=O)N[C@@H](CC(C)C)C(=O)N[C@@H](CC(C)C)C(=O)N[C@@H](CCC(=O)O)C(=O)N[C@@H](CCC(=O)O)C(=O)N[C@H](C(=O)N[C@@H](CCC(=O)O)C(=O)N[C@@H](CCCNC(=N)N)C(N)=O)C(C)C", "note": "[Compound 128]", "values": [
      {"measurement": "EC50", "setting": "[1]; read-out: Seattle WA (IITRI) EC50", "result": 0.042, "unit": "nM"},
      {"measurement": "EC50", "setting": "[2]", "result": "0.045 nM and 0.052 nM"}
    ]},
    {"molecule": "CC[C@H](C)[C@@H]1NC(=O)[C@H](Cc2c[nH]c3ccccc23)NC(=O)[C@H](CCC(=O)O)NC(=O)CSCC[C@@H](C(=O)NCCOCCOCCOCCOCCNC(=O)CCCC[C@@H]2SC[C@@H]3NC(=O)N[C@@H]32)NC(=O)[C@H](CCCCN)NC(=O)[C@H](CCCCN)NC(=O)[C@H](CCSC)NC(=O)[C@H](Cc2ccccc2)NC(=O)[C@H](CCC(=O)O)NC(=O)[C@H](Cc2ccc(O)cc2)NC(=O)[C@H]([C@@H](C)CC)NC(=O)[C@H](CC(C)C)NC(=O)[C@H](CC(=O)O)NC(=O)[C@H](CO)NC(=O)[C@H](C(C)C)NC(=O)[C@H](CCCNC(=N)N)NC(=O)[C@H](CCSC)NC(=O)[C@H](CO)NC(=O)[C@H](C)NC(=O)[C@H](CCC(=O)O)NC(=O)[C@H](C)NC(=O)[C@H](Cc2c[nH]cn2)NC(=O)CNC(=O)[C@H](CC(C)C)NC(=O)[C@H](CCC(=O)O)NC(=O)[C@H](CC(=O)O)NC(=O)[C@H](CC(C)C)NC(=O)[C@H](CC(C)C)NC(=O)[C@H](CCCNC(=N)N)NC(=O)[C@H](CCSC)NC(=O)[C@H]([C@@H](C)CC)NC(=O)[C@H](CCC(=O)O)NC(=O)[C@H](Cc2ccc(O)cc2)NC(=O)[C@H]([C@@H](C)CC)NC(=O)[C@H](CCCCN)NC(=O)[C@H](CCC(N)=O)NC(=O)[C@H](CC(C)C)NC1=O", "note": "[Compound 251] ({CH2CO}-EWILQKIYEIMRLLDELGHAEASMRVSDLIYEFMKK[hCys]-X1; thioether N-37)", "values": [
      {"measurement": "EC50", "setting": "[3]", "result": 0.92, "unit": "nM"},
      {"measurement": "EC50", "setting": "SARS-CoV-2 Spike protein", "result": 0.08, "unit": "nM"}
    ]},
    {"molecule": "Ac-DCAWHLGELVWCTDKEWILQKIYEIMRLLDELGHAEASMRVSDLIYEFMKKGDERLLEEAERLLEEVER (disulfide 2-12) [Compound 120]", "values": [
      {"measurement": "EC50", "setting": "[1]; [5]", "result": 0.001, "unit": "nM"},
      {"measurement": "IC50", "setting": "[4]", "result": "< 10 nM and 1.57 nM"},
      {"measurement": "EC50", "setting": "[2]", "result": "1.9 nM and 1.8 nM"},
      {"measurement": "EC50", "setting": "SARS-CoV-2 Spike protein", "result": "0.33 nM and 0.31 nM"}
    ]},
    {"molecule": "Ac-DKEWILQKIYEIMRLLDELGHAEASMRVSDLIYEFMKKGDERLLEEAERLLEEVERDCAWHLGELVWCT (disulfide 58-68) [Compound 110]", "values": [
      {"measurement": "EC50", "setting": "[1]; [5]", "result": 0.0058, "unit": "nM"},
      {"measurement": "IC50", "setting": "[4]", "result": "< 10", "unit": "nM"},
      {"measurement": "EC50", "setting": "[2]", "result": "1.5 nM and 1.2 nM"},
      {"measurement": "EC50", "setting": "SARS-CoV-2 Spike protein", "result": "0.14 nM and 0.13 nM"}
    ]},
    {"molecule": "Ac-DKEWILQKIYEIMRLLDELGHAEASMRVSDLIYEFMKKGPASPASPASPASDCAWHLGELVWCT (disulfide 53-63) [Compound 167]", "values": [
      {"measurement": "Kd", "setting": "native human IgG1", "result": "< 1", "unit": "nM"},
      {"measurement": "IC50", "setting": "[4]", "result": 10.8, "unit": "nM"},
      {"measurement": "EC50", "setting": "[2]", "result": 0.11, "unit": "nM"},
      {"measurement": "EC50", "setting": "SARS-CoV-2 Spike protein", "result": 0.24, "unit": "nM"}
    ]},
    {"molecule": "DKEWILQKIYEIMRLLDELGHAEASMRVSDLIYEFMKKGDERLLEEAERLLEEVERDCAWHLGELVWCT (disulfide 58-68) [Compound 111]", "values": [
      {"measurement": "EC50", "setting": "[1]; [5]", "result": 0.14, "unit": "nM"},
      {"measurement": "IC50", "setting": "[4]", "result": 1.39, "unit": "nM"}
    ]},
    {"molecule": "{Biotin-PEG4}-[Aib]SDKEWILQKIYEIMRLLDELGHAEAS[Nle]RVSDLIY[Aib]FMK[Aib]G [Compound 218]", "values": [
      {"measurement": "EC50", "setting": "[3]", "result": 2.38, "unit": "nM"},
      {"measurement": "EC50", "setting": "SARS-CoV-2 Spike protein", "result": 0.1, "unit": "nM"}
    ]}
  ]
}
